Source: patent US6780976B2, “Enone reductases, methods for producing same, and methods for selectively reducing a carbon-carbon double bond of an alpha,beta-unsaturated ketone using the reductases” (Daicel Chemical Industries, Ltd., priority 2001, dated 2004)
One block for each molecule: values may come before it.

Tests used:
enone reductase [1] = assay: Substrate specificity of purified enone reductase; assay type: biochemical, Kluyveromyces lactis; settings: enzyme obtained in Example 1
Description: A reaction mixture containing 50 mM potassium phosphate buffer (pH 6.5), […], 20 mM methyl vinyl ketone, and the enzyme is reacted at 30° C., and the decrease in absorbance at 340 nm, which is associated with the decrease of the amount of NADPH, is measured. 1 U is defined as the amount of enzyme catalyzing a decrease of 1 μmol NADPH in one minute. Quantitative analysis of the polypeptide is conducted by pigment binding methods using the protein assay kit (Bio-Rad Laboratories Inc.).
The enzyme obtained in Example 1 was reacted with various enones, ketones, and aldehydes, and the dehydrogenation activity was assayed. The result was represented by a relative activity, taking the dehydrogenation activity of the enzyme on methyl vinyl ketone as 100, and the results are shown in Table 2.

enone reductase [2] = assay: Activity of bacterial cell extract of E. coli HB101 (pSE-KLR1) expressing recombinant enone reductase to various substrates; assay type: biochemical, Kluyveromyces lactis; settings: for Relative activity: methyl vinyl ketone = 100
Description: (§1) A reaction mixture containing 50 mM potassium phosphate buffer (pH 6.5), 0.2 mM NADPH, 20 mM methyl vinyl ketone, and the enzyme is reacted at 30° C., and the decrease in absorbance at 340 nm, which is associated with the decrease of the amount of NADPH, is measured. 1 U is defined as the amount of enzyme catalyzing a decrease of 1 μmol NADPH in one minute. Quantitative analysis of the polypeptide is conducted by pigment binding methods using the protein assay kit (Bio-Rad Laboratories Inc.).
E. coli HB101 strain, transformed with plasmid pSE-KLR1 expressing the enone reductase, was cultured overnight in liquid LB medium containing ampicillin at 30° C. 0.1 mM IPTG was added to the culture, and then, was further cultured for 4 hours.
(§2) The bacterial cells were harvested by centrifugation, and then, were suspended in 50 mM potassium phosphate buffer (pH8.0) containing 0.02% 2-mercaptoethanol, 2mM PMSF, and 10% glycerin. The cells were treated in a closed-chamber sonicator UCD-200TM (Cosmo Bio) for 3 minutes to crush the cells. The bacterial cell lysate was centrifuged and the supernatant was recovered as bacterial cell extract. The extract was assayed for activities to various types of substrates. In addition, E. coli HB 101 strain without the plasmid was cultured overnight in LB culture medium. 0.1 mM IPTG was added to the culture, and then, was further cultured for 4 hours. The bacterial cells were crushed by the same method as above, and the extract was assayed for the activities to various types of substrates.

[3] = test system: E. coli HB 101 strain without the plasmid; assay: Activity of bacterial cell extract of host only (E. coli HB101 without the plasmid) to various substrates; assay type: biochemical
Description: as §1, §2

[4] = Methyl vinyl ketone-reducing activity of the purified enzyme (specific activity, pH and temperature dependency); assay type: biochemical; settings: after Phenyl-Superose, NADPH
Description: as §1
Specific activity of the purified enzyme was about 31.7 U/mg.
The methyl vinyl ketone-reducing activity of the enzyme obtained in Example 1 was tested, by altering the pH of the reaction with potassium phosphate buffer and Britton Robinson buffer. The optimal pH for the reaction was determined to be 6.5 to 7.0.
The methyl vinyl ketone-reducing activity of the enzyme obtained in Example 1 was assayed under standard reaction conditions, with the exception that only the temperatures were altered. The optimal temperature was 37 to 45° C.

[5] = Enone reductase activity of cell-free extracts of E. coli JM109 expressing the homologues YNN4, YL60, YCZ2; assay type: biochemical; settings: E. coli JM109 with pSE-YNN4, pSE-YL60 or pSE-YCZ2; 0.1 mM IPTG, 4 hours
Description: as §1
E. coli JM109 strains, each containing pSE-YNN4, pSE-YL60 or pSE-YCZ2, were cultured in LB culture medium containing ampicillin. The induction of the enzyme was achieved by adding 0.1 mM IPTG and culturing for 4 hours. The bacterial cells were harvested by centrifugation. Respective bacterial cells were suspended in cell lysis buffer (50 mM KPB (pH 8.0), 1 mM EDTA, 0.02% 2-ME, 2 mM PMSF, and 10% glycerol); and the cells were lysed in a sonicator. The supernatant prepared by centrifugation was used as the cell-free extract.
Each of the cell-free extract was assayed for the enone reductase activity. […] Thus, it was verified that all of the three types of homologues of the enzyme of the present invention had the requisite enone reductase activity.

[6] = coenzyme NADPH, activity on methyl vinyl ketone taken as 100
[7] = coenzyme NADH, activity on methyl vinyl ketone (NADPH) taken as 100

Relative activity (enone reductase [1]; [6]): 1%
Molecule: CC(=O)C(C)=O [2,3-butanedione]

Relative activity (enone reductase [1]; [6]): 0%
Molecule: CC(=O)c1ccccc1 [Acetophenone]

Relative activity (enone reductase [1]; [6]): 0%
Molecule: CC1=CC(=O)CC1 [3-methyl-2-cyclopenten-1-one]

Molecule: C=CC(=O)CC [Ethyl vinyl ketone]
Specific activity (enone reductase [2]): 41.8 U/mg | Specific activity [3]: 0.073 U/mg | Relative activity (enone reductase [1]; [7]): 52% | Relative activity (enone reductase [1]; [6]): 537%

Relative activity (enone reductase [1]; [6]): 0%
Molecule: CC1=CCCC1=O [2-methyl-2-cyclopenten-1-one]

Molecule: CC(=O)C=C(C)C [4-methyl-3-pentene-2-one]
Relative activity (enone reductase [1]; [6]): 1%

Molecule: CCC(C)=O [2-butanone]
Relative activity (enone reductase [1]; [6]): 0%

Relative activity (enone reductase [1]; [6]): 1%
Molecule: CC(=O)C=O [Methylglyoxal]

Molecule: C=CC(C)=O [Methyl vinyl ketone]
Specific activity (enone reductase [2]): 7.78 U/mg | Relative activity (enone reductase [2]): 100% | Specific activity [3]: 0.066 U/mg | Relative activity (enone reductase [1]; [7]): 14% | Relative activity (enone reductase [1]; [6]): 100%

Molecule: CC=C(C)C(C)=O [3-methyl-3-pentene-2-one]
Specific activity (enone reductase [2]): 2.52 U/mg | Relative activity (enone reductase [2]): 32.4% | Specific activity [3]: 0.004 U/mg | Relative activity (enone reductase [1]; [6]): 48%

Relative activity (enone reductase [1]; [6]): 0%
Molecule: C/C=C/C(=O)O [Crotonic acid]

Molecule: CC=CC(C)=O [3-pentene-2-one]
Specific activity (enone reductase [2]): 1.23 U/mg | Relative activity (enone reductase [2]): 15.9% | Specific activity [3]: 0.015 U/mg | Relative activity (enone reductase [1]; [6]): 16%

B1: enzyme obtained in Example 1: NADPH-dependent enone reductase purified from Kluyveromyces lactis IFO 1267; amino acid sequence SEQ ID NO:2 (protein)
chain: MSVPTTQKAVIIEGDKAVVKTDVSVPELKEGTALVKVEAVAGNPTDWKHIAYKIGPEGSILGCDIAGTVVKLGPNASTDLKVGDTGFGFVHGASQTDPKNGAFAEYARVYPPLFYKSNLTHSTADEISEGPVKNFESAASLPVSLTTAGVSLCHHLGSKMEWHPSTPQHTHPLLIWGGATAVGQQLIQVAKHINAYTKIVTVASKKHEKLLKSYGADDVFDYHDAGVIEQIKSKYPNLQHVIDAVGSEDSIPEAYKVTADSLPATLLEVVPMTIESIPEEIRKDNVKIDITLLYRASGQEILLGATRFPASPEYHEATVKFVKFINPHLNNGDIHHMNIKVFSNGLDDVPALTEGIKEGKNKNVKYVARL
Specific activity of the purified enzyme [4]: about 31.7 U/mg

B2: YNN4: Saccharomyces cerevisiae enone reductase homologue, SEQ ID NO:4, expressed in E. coli from pSE-YNN4 (protein)
chain: MSASIPETMKAVVIENGKAVVKQDIPIPELEEGFVLIKTVAVAGNPTDWKHIDFKIGPQGALLGCDAAGQIVKLGPNVDAARFAIGDYIYGVIHGASVRFPSNGAFAEYSAISSETAYKPAREFRLCGKDKLPEGPVKSLEGAVSLPVSLTTAGMILTHSFGLDMTWKPSKAQRDQPILFWGGATAVGQMLIQLAKKLNGFSKIIVVASRKHEKLLKEYGADELFDYHDADVIEQIKKKYNNIPYLVDCVSNTETIQQVYKCAADDLDATVVQLTVLTEKDIKEEDRRQNVSIEGTLLYLIGGNDVPFGTFTLPADPEYKEAAIKFIKFINPKINDGEIHHIPVKVYKNGLDDIPQLLDDIKHGRNSGEKLVAVLK
Enone reductase activity of cell-free extract [5]: 0.268 U/mg protein

B3: YCZ2: Saccharomyces cerevisiae enone reductase homologue, SEQ ID NO:8, expressed in E. coli from pSE-YCZ2 (protein)
chain: MKAVVIEDGKAVVKEGVPIPELEEGFVLIKTLAVAGNPTDWAHIDYKVGPQGSILGCDAAGQIVKLGPAVDPKDFSIGDYIYGFIHGSSVRFPSNGAFAEYSAISTVVAYKSPNELKFLGEDVLPAGPVRSLEGAATIPVSLTTAGLVLTYNLGLNLKWEPSTPQRNGPILLWGGATAVGQSLIQLANKLNGFTKIIVVASRKHEKLLKEYGADQLFDYHDIDVVEQIKHKYNNISYLVDCVANQNTLQQVYKCAADKQDATVVELTNLTEENVKKENRRQNVTIDRTRLYSIGGHEVPFGGITFPADPEARRAATEFVKFINPKISDGQIHHIPARVYKNGLYDVPRILEDIKIGKNSGEKLVAVLN
Enone reductase activity of cell-free extract [5]: 0.133 U/mg protein

B4: YL60: Saccharomyces cerevisiae enone reductase homologue, SEQ ID NO:6, expressed in E. coli from pSE-YL60 (protein)
chain: MAQVAIPETMKAVVIEDGKAVVKEGIPIPELEEGFVLIKTLAVAGNPTDWAHIDYKIGPQGSILGCDAAGQIVKLGPAVNPKDFSIGDYIYGFIHGSSVRFPSNGAFAEYSAISTVVAYKSPNELKFLGEDVLPAGPVRSLEGVATIPVSLTTAGLVLTYNLGLDLKWEPSTPQRKGPILLWGGATAVGQSLIQLANKLNGFTKIIVVASRKHEKLLKEYGADELFDYHDIDVVEQIKHKYNNISYLVDCVANQDTLQQVYKCAADKQDATIVELKNLTEENVKKENRRQNVTIDIIRLYSIGGHEVPFGNITLPADSEARKAAIKFIKFINPKINDGQIRHIPVRVYKNGLCDVPHILKDIKYGKNSGEKLVAVLN
Enone reductase activity of cell-free extract [5]: 0.198 U/mg protein
